Source: patent US7674823B2, “DNA-PK inhibitors” (Cancer Research Technology Limited, priority 2001, dated 2010)

These molecules were tested against T1, Mammalian DNA-PK, isolated from Hela cell nuclear extract (Homo sapiens, UniProt P78527) (assay: DNA-PK inhibition assay (33P-ATP, filter binding)). Conditions: not given.
T1 construct: Mammalian DNA-PK, isolated from Hela cell nuclear extract; endogenous in cells; host or cells: HeLa cell nuclear extract (purified per Gell and Jackson 1999)
Format: biochemical
Protocol: In order to assess the inhibitory action of the compounds against DNA-PK in vitro, the following assay was used to determine IC50 values.
The total assay volume per well was 40 μl.
After 10 minutes of incubation at 30° C. the reactions were initiated by the addition of Na-ATP (50 μM final), ^33p-γATP and a 30mer double stranded DNA oligonucleotide (10 ng/μl) in a volume of 10 μl. Designated positive and negative reaction wells were done in combination with compound wells (unknowns) in order to calculate % enzyme activities. The plates were then shaken for 2 minutes and incubated at 30° C. for 45 minutes.
Following the incubation, the reactions were quenched by the addition of 50 μl 30% acetic acid to each well. The plates were then shaken for 5 minutes and the contents of each plate (80 μl from each well) transferred over to a 96 well Polyfiltronics filtration plate, containing P81-phosphocellulose membrane (TRADE MARK)(Whatman, UK). The solutions were vacuum pumped through the membrane and each well membrane washed four times using 300 μl of 15% acetic acid. The well membranes were then air dried and 20 μl of scintillant was added to each well.
The plates were transferred to a TopCount NXT (TRADE MARK) (Packard, UK) for scintillation counting. Values recorded are counts per minute (cpm) following a 1 minute counting time for each well.
The enzyme activity for each compound is then calculated using the following equation: […]
These are determined over a range of different concentrations, normally from 10 μM down to 0.01 μM. Such IC50 values are used as comparative values to identify increased compound potencies.

Compound	IC50 [µM]
O=C(NC1CN2CCC1CC2)c1ccc(-c2cc(=O)cc(N3CCOCC3)o2)cc1 (centres unmarked) [Compound 206]	< 1

Same assay, conditions: IC50 of less than about 1 μM and/or % inhibition of more than about 50 at 1 μM; read-out: DNA-PK inhibition IC50 (particular efficacy)

Compound	IC50 [µM]
O=c1cc(-c2ccc3c(c2)CCO3)oc(N2CCOCC2)c1 [Compound 59]	< 1
O=c1cc(-c2ccc3c(c2)OCCO3)oc(N2CCOCC2)c1 [Compound 60]	< 1
O=c1cc(-c2cccc3ccsc23)oc(N2CCOCC2)c1 [Compound 72]	< 1
N#CCNC(=O)c1cccc(-c2cc(=O)cc(N3CCOCC3)o2)c1 [Compound 73]	< 1
O=C(NC1CC1)c1cccc(-c2cc(=O)cc(N3CCOCC3)o2)c1 [Compound 74]	< 1
O=C(NCc1cccc(C(F)(F)F)c1)c1cccc(-c2cc(=O)cc(N3CCOCC3)o2)c1 [Compound 99]	< 1
Nc1cccc(CNC(=O)c2cccc(-c3cc(=O)cc(N4CCOCC4)o3)c2)c1 [Compound 104]	< 1
CN(C)c1ccc(CNC(=O)c2cccc(-c3cc(=O)cc(N4CCOCC4)o3)c2)cc1 [Compound 105]	< 1
CN(C)CCN(Cc1ccccc1)C(=O)c1cccc(-c2cc(=O)cc(N3CCOCC3)o2)c1 [Compound 106]	< 1
NCc1cccc(CNC(=O)c2cccc(-c3cc(=O)cc(N4CCOCC4)o3)c2)c1 [Compound 107]	< 1
O=C(NC1CCC(O)CC1)c1cccc(-c2cc(=O)cc(N3CCOCC3)o2)c1 (centres unmarked) [Compound 114]	< 1
CCN(CC)CCCNC(=O)c1cccc(-c2cc(=O)cc(N3CCOCC3)o2)c1 [Compound 118]	< 1
O=C(CNC(=O)c1cccc(-c2cc(=O)cc(N3CCOCC3)o2)c1)c1cccc([N+](=O)[O-])c1 [Compound 123]	< 1
COCCCNC(=O)c1cccc(-c2cc(=O)cc(N3CCOCC3)o2)c1 [Compound 125]	< 1
O=C(NCCOc1ccccc1)c1cccc(-c2cc(=O)cc(N3CCOCC3)o2)c1 [Compound 126]	< 1
COCCNC(=O)c1cccc(-c2cc(=O)cc(N3CCOCC3)o2)c1 [Compound 127]	< 1
O=C(NCc1cccs1)c1cccc(-c2cc(=O)cc(N3CCOCC3)o2)c1 [Compound 131]	< 1
O=C(c1cccc(-c2cc(=O)cc(N3CCOCC3)o2)c1)N1CCOCC1 [Compound 139]	< 1
O=C(c1cccc(-c2cc(=O)cc(N3CCOCC3)o2)c1)N1CCCC(CO)C1 (centres unmarked) [Compound 140]	< 1
O=C(c1cccc(-c2cc(=O)cc(N3CCOCC3)o2)c1)N1CCN(C/C=C/c2ccccc2)CC1 [Compound 143]	< 1
O=C(NN1CCOCC1)c1cccc(-c2cc(=O)cc(N3CCOCC3)o2)c1 [Compound 146]	< 1

Compound	IC50 [µM]
Cc1ccccc1CNC(=O)c1ccc(-c2cc(=O)cc(N3CCOCC3)o2)cc1 [Compound 163]	< 1
O=C(c1ccc(-c2cc(=O)cc(N3CCOCC3)o2)cc1)N(Cc1ccccc1)Cc1ccccc1 [Compound 166]	< 1
COc1ccc(CCNC(=O)c2ccc(-c3cc(=O)cc(N4CCOCC4)o3)cc2)cc1 [Compound 167]	< 1
O=C(NCc1cccc(F)c1)c1ccc(-c2cc(=O)cc(N3CCOCC3)o2)cc1 [Compound 169]	< 1
O=C(NCCCc1ccccc1)c1ccc(-c2cc(=O)cc(N3CCOCC3)o2)cc1 [Compound 170]	< 1
CC(CNC(=O)c1ccc(-c2cc(=O)cc(N3CCOCC3)o2)cc1)c1ccc(Cl)cc1 (centres unmarked) [Compound 173]	< 1
O=C(NCc1ccc(OC(F)(F)F)cc1)c1ccc(-c2cc(=O)cc(N3CCOCC3)o2)cc1 [Compound 175]	< 1
O=C(NCc1cc(C(F)(F)F)cc(C(F)(F)F)c1)c1ccc(-c2cc(=O)cc(N3CCOCC3)o2)cc1 [Compound 176]	< 1
O=C(NCc1cccc(C(F)(F)F)c1)c1ccc(-c2cc(=O)cc(N3CCOCC3)o2)cc1 [Compound 178]	< 1
O=C(NCc1cc(F)cc(C(F)(F)F)c1)c1ccc(-c2cc(=O)cc(N3CCOCC3)o2)cc1 [Compound 179]	< 1
Nc1cccc(CNC(=O)c2ccc(-c3cc(=O)cc(N4CCOCC4)o3)cc2)c1 [Compound 182]	< 1
O=C(NCCSCc1c(F)cccc1Cl)c1ccc(-c2cc(=O)cc(N3CCOCC3)o2)cc1 [Compound 187]	< 1
O=C(NC(CO)CO)c1ccc(-c2cc(=O)cc(N3CCOCC3)o2)cc1 [Compound 190]	< 1
CSCCC(CO)NC(=O)c1ccc(-c2cc(=O)cc(N3CCOCC3)o2)cc1 (centres unmarked) [Compound 192]	< 1
CC(C)(C)OC(=O)CNC(=O)c1ccc(-c2cc(=O)cc(N3CCOCC3)o2)cc1 [Compound 194]	< 1
COCC(Cc1ccccc1)NC(=O)c1ccc(-c2cc(=O)cc(N3CCOCC3)o2)cc1 (centres unmarked) [Compound 200]	< 1
O=C(NCCOc1ccccc1)c1ccc(-c2cc(=O)cc(N3CCOCC3)o2)cc1 [Compound 202]	< 1
O=C(NCCCNC(=O)c1ccc(-c2cc(=O)cc(N3CCOCC3)o2)cc1)OCc1ccccc1 [Compound 203]	< 1
O=C(NC1CCN(Cc2ccccc2)CC1)c1ccc(-c2cc(=O)cc(N3CCOCC3)o2)cc1 [Compound 205]	< 1
O=C(NCc1ccco1)c1ccc(-c2cc(=O)cc(N3CCOCC3)o2)cc1 [Compound 211]	< 1
O=C(NCc1ccccn1)c1ccc(-c2cc(=O)cc(N3CCOCC3)o2)cc1 [Compound 214]	< 1

Compound	IC50 [µM]
CCOC(=O)C1CCCN(C(=O)c2ccc(-c3cc(=O)cc(N4CCOCC4)o3)cc2)C1 (centres unmarked) [Compound 215]	< 1
COC(=O)C(NCc1ccc(-c2cc(=O)cc(N3CCOCC3)o2)cc1)c1ccccc1 (centres unmarked) [Compound 247]	< 1
O=c1cc(-c2ccc(CNCc3cccc(F)c3)cc2)oc(N2CCOCC2)c1 [Compound 249]	< 1
O=c1cc(-c2ccc(CNCc3ccc(OC(F)(F)F)cc3)cc2)oc(N2CCOCC2)c1 [Compound 252]	< 1
COc1cccc(CNCc2ccc(-c3cc(=O)cc(N4CCOCC4)o3)cc2)c1OC [Compound 253]	< 1
Nc1ccccc1CNCc1ccc(-c2cc(=O)cc(N3CCOCC3)o2)cc1 [Compound 255]	< 1
O=c1cc(-c2ccc(CN3Cc4cccc5cccc(c45)C3)cc2)oc(N2CCOCC2)c1 [Compound 258]	< 1
O=c1cc(-c2ccc(CN3CCc4ccccc4C3)cc2)oc(N2CCOCC2)c1 [Compound 260]	< 1
CC(=O)OC(C)C(=O)Nc1ccc(-c2cc(=O)cc(N3CCOCC3)o2)cc1 (centres unmarked) [Compound 267]	< 1
CC(O)C(=O)Nc1ccc(-c2cc(=O)cc(N3CCOCC3)o2)cc1 (centres unmarked) [Compound 268]	< 1
CCOC(=O)CC(=O)Nc1ccc(-c2cc(=O)cc(N3CCOCC3)o2)cc1 [Compound 269]	< 1
O=C(CSc1ccccc1)Nc1ccc(-c2cc(=O)cc(N3CCOCC3)o2)cc1 [Compound 270]	< 1
O=C(Cc1cccs1)Nc1ccc(-c2cc(=O)cc(N3CCOCC3)o2)cc1 [Compound 271]	< 1
O=C(Nc1ccc(-c2cc(=O)cc(N3CCOCC3)o2)cc1)C1CCCN1C(=O)C(F)(F)F (centres unmarked) [Compound 279]	< 1
O=c1cc(N2CCC(CO)CC2)oc2c1ccc1ccccc12 [Compound 318, 2-(4-Hydroxymethyl-piperidin-1-yl)-benzo[h]chromen-4-one]	< 1
N#Cc1ccc(COc2ccc3c(=O)cc(N4CCOCC4)oc3c2)cc1 [Compound 338, 7-(4-cyano-benzyloxy)-2-morpholin-4-yl-chromen-4-one]	< 1
COC(=O)c1ccc(COc2ccc3c(=O)cc(N4CCOCC4)oc3c2)cc1 [Compound 339, Methyl 4-(2-(morpholin-4-yl)-4-oxo-4H-chromen-7-yloxymethyl)-benzoate]	< 1
COC(=O)c1cccc(COc2ccc3c(=O)cc(N4CCOCC4)oc3c2)c1 [Compound 340, Methyl 3-(2-(morpholin-4-yl)-4-oxo-4H-chromen-7-yloxymethyl)-benzoate]	< 1
O=c1cc(N2CCOCC2)oc2cc(OCc3cccc(Cl)c3)ccc12 [Compound 341, 7-(3-Chlorobenzyloxy)-2-(morpholin-4-yl)-chromen-4-one]	< 1

Same assay, conditions: concentration at which 50% of the enzyme activity is inhibited; read-out: DNA-PK Inhibition IC50

Compound	IC50 [µM]
O=c1cc(N2CCCC2)oc2c1ccc1ccccc12 [Compound 312, 2-pyrrolidin-1-yl-benzo[h]chromen-4-one]	10
O=c1cc(N2CCSC2)oc2c1ccc1ccccc12 [Compound 330, 2-(Thiazolidin-3-yl)-benzo[h]chromen-4-one]	20
N#Cc1ccc(COc2ccc3c(=O)cc(N4CCOCC4)oc3c2)cc1 [Compound 338, 7-(4-cyano-benzyloxy)-2-morpholin-4-yl-chromen-4-one]	0.95
O=c1cc(N2CCOCC2)oc2cc(OCc3cccc(Cl)c3)ccc12 [Compound 341, 7-(3-Chlorobenzyloxy)-2-(morpholin-4-yl)-chromen-4-one]	0.65
Cc1cccc(COc2ccc3c(=O)cc(N4CCOCC4)oc3c2)c1 [Compound 342, 7-(3-Methylbenzyloxy)-2-(morpholin-4-yl)-chromen-4-one]	0.8

Same assay, conditions: read-out: DNA-PK Inhibition IC50

Compound	IC50 [µM]
O=c1cc(N2CC[C@H](O)C2)nc2c3ccccc3ccn12 [Compound 12, 2-((S)-3-Hydroxy-pyrrolin-1-yl)-pyrimido[2,1-a]isoquinolin-4-one]	10.5
